Experimental findings from paper doi:10.1101/2023.10.24.563163v2, “Targeting cancer with small molecule pan-KRAS degraders” (biorxiv, 2024) are described below.

One test has as its target T1, VHL-NanoLuc (Homo sapiens, UniProt P40337).
T1 construct: VHL-NanoLuc fusion (Promega) transfected into HEK293; endogenous elongins
Description: NanoBRET VHL target engagement. Format: cell-based.

The next test addresses T2, KRAS^WT (Homo sapiens, UniProt P01116).
T2 construct: endogenous wild type
More on the design: KRAS degradation by capillary electrophoresis immunodetection. The note with it: read-out: DC50 24 h HEK293. On the procedure: Protein Detection by Capillary Electrophoresis Cells (50 000) were seeded the day before treatment into 96-well clear-flat bottom plates and incubated overnight (37 °C, humidified tissue culture incubator, 5% CO2). Compounds were added from DMSO stock solution using a digital dispenser and cells are incubated at 37 °C as specified (24 hours for KRAS degradation, 6 hours for determination of pERK levels). At the end of the incubation, medium was removed, cells washed with ice cold PBS, PBS removed and 50 µL lysis buffer (Meso Scale Discovery #R60TX-2) supplemented with 1:100 protease inhibitor solution, 1:100 phosphatase inhibitor I, 1:100 phosphatase inhibitor II (Meso Scale Discovery #R70AA-1), 0.5 µL/mL Benzonase (Novagen #70664-3) and 10 mM dithiothreitol added to each well. Plates with lysis buffer were immediately transferred to -80 °C freezer for at least 2 hours and then thawed on ice. Lysates were transferred to a 96 well V-bottom plate and insoluble debris was pelleted by centrifugation for 20 min. at 4 000 rpm. 40 µL of the supernatant were transferred to a fresh Eppendorf PCR plate. Analysis of protein levels was conducted using the Wes System, ProteinSimple (https://www.bio-techne.com/) as specified by the manufacturer. […]

A value given as a limit tells only on which side of the number the result lay.

Broadly, the IC50 is the concentration that inhibits the measured activity by half. A lower IC50 goes with higher potency. As usually defined, the DC50 is the concentration at which degradation of the target reaches its halfway point.

T2 sequence (P01116 whole entry): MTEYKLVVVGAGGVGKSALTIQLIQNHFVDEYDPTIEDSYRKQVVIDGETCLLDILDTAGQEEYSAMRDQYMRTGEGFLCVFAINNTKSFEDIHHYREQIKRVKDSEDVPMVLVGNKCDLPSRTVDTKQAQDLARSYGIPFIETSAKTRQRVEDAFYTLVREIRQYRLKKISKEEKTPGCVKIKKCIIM
T1 sequence (P40337 whole entry, the tested form may be a part): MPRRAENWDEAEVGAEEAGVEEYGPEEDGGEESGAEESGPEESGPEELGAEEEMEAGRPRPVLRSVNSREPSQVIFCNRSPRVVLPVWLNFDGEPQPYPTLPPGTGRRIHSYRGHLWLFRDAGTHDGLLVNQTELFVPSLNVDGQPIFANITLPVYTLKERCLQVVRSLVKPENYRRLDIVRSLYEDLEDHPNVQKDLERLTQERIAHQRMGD

With `Cc1ncsc1-c1ccc(CNC(=O)[C@@H]2C[C@@H](O)CN2C(=O)[C@@H](NC(=O)COCCCN2CCCN(c3nccc(-c4noc([C@@]5(C)CCCc6sc(N)c(C#N)c65)n4)n3)[C@@H](C)C2)C(C)(C)C)cc1` [compound 2], the IC50 against VHL-NanoLuc was determined as 5000 nM.
`Cc1ncsc1-c1ccc(CNC(=O)[C@@H]2C[C@@H](O)CN2C(=O)[C@@H](NC(=O)CCCCCN2CCCN(c3nccc(-c4noc([C@@]5(C)CCCc6sc(N)c(C#N)c65)n4)n3)[C@@H](C)C2)C(C)(C)C)cc1` [compound 3]: the DC50 at KRAS^WT is above 1000 nM.
With `Cc1ncsc1-c1ccc(CNC(=O)[C@@H]2C[C@@H](O)CN2C(=O)[C@@H](c2cc(OCCCCN3CCCN(c4nccc(-c5noc([C@@]6(C)CCCc7sc(N)c(C#N)c76)n5)n4)[C@@H](C)C3)no2)C(C)C)cc1` [compound 4], the DC50 on KRAS^WT is 86.7 nM.
